Measurements published in patent US8287923B2, “Compositions and methods for treating immune disorders” (priority 2005, dated 2012).

Tests used:
Type in all cases: cell-based, human
NHEK [1] = experiment: Affymetrix gene array analysis, inflammatory gene expression; settings: 100 μM, vs time 0
Method: The gene array experiment was performed at the Core Facility of Genomics of the Medical College of Georgia, according to the instructions of the manufacturer (Affymetrix, Santa Clara, Calif.). Briefly, NHEK and OSC2 cells treated with 100 μM EGCG for different time period were extracted for total RNA, the RNA was processed for probes and hybridized with a cDNA microarray (HuG133A, Affymetrix) which represents 22,283 human series. DNA chips were read with a Hewlett-Packard GeneArray Scanner at a resolution of […] and were analyzed with the GeneSpring software (Silicon Genetics, Redwood City, Calif.). Details of this analysis will be published elsewhere (Hsu et al., manuscript in preparation).

OSC2 cells = experiment: Semi-quantitative RT-PCR of SS-A/Ro and SS-B/La mRNA; settings: 100 uM EGCG
Method: Total RNA was extracted using an RNeasy total RNA isolation system (QIAGEN, Valentia, Calif.) RT reactions and PCR reactions were performed according to the manufacturer's protocol (Super Array Bioscience Corp). For amplification, the following pair of primers was used,
Amplification was started by heating for 1.5 min at 94° C., followed by 30 cycles for 52 kD SSA/Ro. 25 cycles for GAPDH and 25 cycles for SSB/La, each cycle consisting of 15
second at 94° C., 30 seconds at 57.3° C., and 1 min at 72° C. A final extension was performed at 72° C. for 5 min prior to gel analysis.
To further test this possibility, three cell types, NHEK, NS-SV-AC (an SV40 immortalized cell line derived from human submandibular acinar cells) and OC2 cells (derived from an oral squamous cell carcinoma) were treated with 100 uM EGCG for different times. A semi-quantitative estimate of SS-A/Ro and SS-B/La mRNA levels was then obtained by RT-PCR during the exponential period of amplification. GAPDH was used as a housekeeping gene control.

NS-SV-AC cells = experiment: Western analysis of autoantigen protein levels; settings: 100 uM
Method: (§1) Western blot. Cells were washed in ice-cold PBS and lysed for 20 min in RIPA buffer containing 1% (v/v) Nonidet P-40, 0.5% (w/v) sodium deoxycholate, 0.1% (w/v) SDS, 10 μg/ml leupeptin, 3 μg/ml aprotinin and 100 mM phenylmethylsulfonyl fluoride (PMSF). Samples of lysates containing the same amount of protein were loaded in each lane (we used 5-30μg, depending on the antibody used) and electrophoretically separated on a 12% SDS polyacrylamide gel. Following electrophoresis, proteins were transferred to a PVDF membrane (Immobilon™-P, Millipore Corporation, Bedford, Mass.). The membrane was blocked for 1 h with 5% (w/v) non-fat dry milk powder in PBST (0.1% Tween-20 in PBS) and then incubated for 1 h with primary antibody diluted in PBST/milk (Antibodies and dilutions: rabbit polyclonal JNK1/2, […], mouse monoclonal pJNK1/2, 1:1000, rabbit polyclonal ERK, 1:2000, rabbit polyclonal p38, 1:1000, rabbit polyclonal pp 38, 1:1000 and goat polyclonal actin, 1:2000). The membrane was washed three times with PBST and incubated with peroxidase-conjugated, affinity-purified anti-rabbit IgG (Santa Cruz Biotechnology, Inc.) for 1 h. Following extensive washing, the reaction was developed by enhanced chemiluminescent staining using ECL Western blotting detection reagents (Amersham Pharmacia Biotech Inc., Piscataway, N.J.).
(§2) To extend the mRNA data, the protein levels of 6 different autoantigens in NHEK and NS-SV-AC cells were determined by Western analysis following two treatments with 100 uM EGCSG at 24 and 48 hrs.

NHEK [2] = experiment: Western analysis of autoantigen protein levels; settings: 100 uM
Method: as §1, §2

## O=C(O[C@@H]1Cc2c(O)cc(O)cc2O[C@@H]1c1cc(O)c(O)c(O)c1)c1cc(O)c(O)c(O)c1 [EGCG, (−)-epigallocatechin-3-gallate]
NHEK [1]; 0.5 h
  BMP2 (205290_s_at) expression: 0.32 fold
  IFNGR1 (202727_s_at) expression: 0.79 fold
  IL1A (210118_s_at) expression: 0.66 fold
  IL1B (39402_at) expression: 0.29 fold
  IL1B (205067_at) expression: 0.29 fold
  IL6R (205945_at) expression: 0.48 fold
  IL6ST (21100_s_at) expression: 0.34 fold
  IL8 (202859_x_at) expression: 6.02 fold
  IL10RB (209575_at) expression: 0.43 fold
  IL13RA2 (206172_at) expression: 0.33 fold
  IL18 (206295_at) expression: 0.33 fold
  TNFSF15 (221085_at) expression: 0.52 fold
  p38 (21156_x_at) expression: 2.32 fold
  p38 (202530_at) expression: 2.51 fold
NHEK [1]; 2 h
  BMP2 (205290_s_at) expression: 0.96 fold
  IFNGR1 (202727_s_at) expression: 0.91 fold
  IL1A (210118_s_at) expression: 0.42 fold
  IL1B (39402_at) expression: 0.48 fold
  IL1B (205067_at) expression: 0.58 fold
  IL6R (205945_at) expression: 0.69 fold
  IL6ST (21100_s_at) expression: 0.28 fold
  IL8 (202859_x_at) expression: 9.55 fold
  IL10RB (209575_at) expression: 0.63 fold
  IL13RA2 (206172_at) expression: 0.74 fold
  IL18 (206295_at) expression: 0.65 fold
  TNFSF15 (221085_at) expression: 1.56 fold
  p38 (21156_x_at) expression: 1.46 fold
  p38 (202530_at) expression: 1.09 fold
NHEK [1]; 6 h
  BMP2 (205290_s_at) expression: 0.72 fold
  IFNGR1 (202727_s_at) expression: 0.45 fold
  IL1A (210118_s_at) expression: 0.54 fold
  IL1B (39402_at) expression: 0.40 fold
  IL1B (205067_at) expression: 0.49 fold
  IL6R (205945_at) expression: 0.31 fold
  IL6ST (21100_s_at) expression: 0.99 fold
  IL8 (202859_x_at) expression: 9.99 fold
  IL10RB (209575_at) expression: 0.76 fold
  IL13RA2 (206172_at) expression: 0.81 fold
  IL18 (206295_at) expression: 0.70 fold
  TNFSF15 (221085_at) expression: 0.67 fold
  p38 (21156_x_at) expression: 1.62 fold
  p38 (202530_at) expression: 0.63 fold
NHEK [1]; 24 h
  BMP2 (205290_s_at) expression: 0.44 fold
  IFNGR1 (202727_s_at) expression: 0.92 fold
  IL1A (210118_s_at) expression: 0.27 fold
  IL1B (39402_at) expression: 0.27 fold
  IL1B (205067_at) expression: 0.26 fold
  IL6R (205945_at) expression: 0.69 fold
  IL6ST (21100_s_at) expression: 0.61 fold
  IL8 (202859_x_at) expression: 9.93 fold
  IL10RB (209575_at) expression: 0.38 fold
  IL13RA2 (206172_at) expression: 0.55 fold
  IL18 (206295_at) expression: 0.65 fold
  TNFSF15 (221085_at) expression: 0.63 fold
  p38 (21156_x_at) expression: 2.51 fold
  p38 (202530_at) expression: 1.17 fold
OSC2 cells
  SS-A/Ro mRNA level: showed little change
  reduction in SS-B/La mRNA: less pronounced and did not occur until 24 hrs of exposure
NS-SV-AC cells; 24 hrs
  Golgin-67 protein level: reduced
  PARP protein level: significantly reduced
  SS-A/Ro 52 protein level: Neither SS-A/Ro 52 nor SS-B/La were significantly reduced
  SS-B/La protein level: Neither SS-A/Ro 52 nor SS-B/La were significantly reduced
  coilin protein level: significantly reduced
NS-SV-AC cells; 48 hrs
  Golgin-67 protein level: barely detectable
  PARP protein level: barely detectable
  SS-A/Ro 52 protein level: considerably reduced
  SS-B/La protein level: considerably reduced
  coilin protein level: barely detectable
NHEK [2]; 24 hrs
  PARP protein level: significantly reduced
  SS-A/Ro 52 protein level: Neither SS-A/Ro 52 nor SS-B/La were significantly reduced
  SS-B/La protein level: Neither SS-A/Ro 52 nor SS-B/La were significantly reduced
  coilin protein level: significantly reduced
NHEK [2]; 48 hrs
  Golgin-67 protein level: the reduction was not as marked and was only observed at 48 hrs
  PARP protein level: barely detectable
  SS-A/Ro 52 protein level: considerably reduced
  SS-B/La protein level: considerably reduced
  coilin protein level: barely detectable
